{"source": "patent US20180326022A1", "about": "“COMPOSITIONS AND METHODS FOR IMPROVING HEART FUNCTION AND TREATING HEART FAILURE” (The Trustees of the University of Pennsylvania, priority 2017, published 2018)", "key": {"isolated cardiomyocytes": {"test_system": "isolated cardiomyocytes", "test": "Atomic force microscopy viscoelasticity (Standard Linear Solid Model)", "type": "cell-based, rat", "conditions": "mean(SEM)", "description": "(§1) The elastic modulus of isolated cardiomyocytes was measured using AFM indentation. Optical microscopy and AFM were performed simultaneously using an MFP3D AFM (Asylum Research) combined with an inverted Nikon TE-2000U microscope equipped with a Nikon 100×, 1.49 NA objective. TTL expression was determined by dsRED fluorescence captured via 532 nm laser excitation (CrystaLaser) and a CCD camera (Cascade-512B, Photometrics) at 900 ms exposure time controlled through the NIS Elements software package. […] Modulus characterization of myocytes was performed using 4.26 μm radius (R below) SiO2 microparticle epoxied to SiN cantilevers with nominal spring constant 0.03 N/m (CP-PNPS-SiO-A, Nano And More, USA). Cantilever spring constants were manually calibrated in air by thermal vibrations using the MFP3D prior to each experiment using a clean glass substrate. Inverse optical lever sensitivity was determined in myocyte buffer solution prior to each round of measurements.\nElastic moduli were determined by fitting the indentation curve to the Hertz model (Eq. 17) adjusted for a spherical indenter using the Asylum Research built in analysis software.\nE is the elastic modulus, υ, is the cell Poisson ratio and δ is the indentation depth. Transverse compression of the cardiomyocyte is performed over a range of indentation speeds and the indentation speed is divided by the total indentation depth to obtain an effective indentation rate, f. Viscosity and velocity dependent elastic moduli were then derived by fitting each myocyte to a Standard Linear Solid Model: […]"}, "desmin KO myocytes": {"test_system": "desmin KO myocytes", "test": "AFM viscoelasticity, desmin KO mouse myocytes", "type": "cell-based", "conditions": "KO + PTL", "description": "(§2) Animal care and procedures were approved and performed in accordance with the standards set forth by the University of Pennsylvania Institutional Animal Care and Use Committee and the Guide for the Care and Use of Laboratory Animals published by the US National Institutes of Health. Desmin knockout mice and WT littermates were provided by Dr. Robert Bloch and have been previously characterized (36). Experiments were performed blinded to genotype.\n(§3) Viral constructs were permitted to express for 24-72 hours with Moi=100-200. Parthenolide (Fisher Scientific NC9013142) treatment was carried out at room temperature for 2 hours at 10 μM. All experiments were performed within 48 hours of isolation, except those involving shTTL, which were allowed 72 hours to improve knockdown efficiency.\nas §1\n(§4) E is the elastic modulus, υ, is the cell Poisson ratio and δ is the indentation depth. Transverse compression of the cardiomyocyte is performed over a range of indentation speeds and the indentation speed is divided by the total indentation depth to obtain an effective indentation rate, f. […]"}, "human myocytes": {"test_system": "human myocytes", "test": "Calcium measurements in human myocytes", "type": "cell-based", "description": "Viable myocytes were concentrated by gravity (5-7 min) and supernatant was aspirated to remove dead cells. Myocytes were resuspended in NT solution containing 1 mM Ca^2+ and concentrated by gravity (5-7 min) again. Cardiomyocytes used acutely were maintained in NT solution for up to 6 hours. Myocytes were treated with 10 μM parthenolide (Fisher Scientific NC9013142 or Sigma P0667) or 10 μM colchicine (Sigma) at room temperature in NT solution for 2 hours. Experiments were performed within 6 hours of isolation, except for those involving viral transduction in cultured cells.\nCalcium measurements were carried out as described in Example 1 with the following modifications. Myocytes were loaded with 1 μM Fluo-3-acetoxymethyl ester (Invitrogen) and 15% Pluronic F127 (a poloxamer made by BASF, Florham Park, N.J., USA) for 15 minutes. Cells were scanned using a 488-nm argon ion laser in confocal line-scan mode at 0.909 ms/line. Cells were electrically paced at 0.5 Hz at room temperature for 30 s to achieve steady state; five steady-state transients of each myocyte were averaged, pooled in groups and analyzed for calcium transient properties. The measured fluorescence (F) throughout the transient was normalized to the resting fluorescence prior to stimulation (F0) to normalize for heterogeneity in dye loading."}, "WT myocytes": {"test_system": "WT myocytes", "test": "AFM viscoelasticity, WT mouse myocytes", "type": "cell-based", "conditions": "WT + PTL", "description": "as §2, §3, §1, §4"}, "desmin": {"test_system": "desmin", "test": "Microtubule co-sedimentation with desmin", "type": "cell-based", "conditions": "after PTL treatment; rat cardiomyocytes and C2C12 cells", "description": "Microtubules were isolated for co-sedimentation from isolated cardiomyocytes or C2C12 cells following treatment with parthenolide. Cells were homogenized at 37° C. in 400 μl of microtubule-stabilizing buffer (MSB) by passage through 25G syringe needle. Homogenate was centrifuged to remove cell debris at 2000×g for 5 min at 37° C. and pellet was resuspended in RIPA buffer containing 5 mM CaCl2. Supematant containing free and polymerized tubulin was loaded on a cushion of 10% sucrose in MSB and centrifuged in SW-60 rotor at 100000×g for 30 min at 37° C. Supernatant was saved, pellet (polymerized MT fraction) was resuspended in 0° C. RIPA buffer containing 5 mM CaCl2 and incubated on ice for 10 min. All samples were then centrifuged at 14000×g for 5 min at 0° C. and supernatant was measured by Bradford assay against a BSA (Sigma) standard and boiled in 12-40 μl of 1× loading buffer (Li-COR, 928-40004) prior to western blotting."}, "[1]": {"test_system": "microtubules in contracting cardiomyocytes", "test": "Microtubule buckling in contracting cardiomyocytes (Airyscan imaging)", "type": "cell-based, rat", "description": "Confocal imaging was carried out on a Zeiss 780 laser scanning confocal scan head operating on an Axiovert Z1 inverted microscope equipped with a 40× oil 1.4 NA objective. High-speed super resolution imaging was carried out on a Zeiss 880 Airyscan confocal with a 63×1.4 oil NA objective (FIG. 8A-FIG. 8E, Airyscan application note can be found at http://www.zeiss.com/microscopy/enus/products/confocal-microscopes/Ism-880-with-airyscan-.html#downloads). Image analysis was performed using ZEN Black software for Airyscan processing, which involves signal integration from the 32 separate sub-resolution detectors in the Airyscan detector and subsequent deconvolution of this integrated signal (FIG. 8A-FIG. 8E). Additional signal processing was performed in Image J (NIH). For calculating the microtubule fraction of cell area (FIG. 2B-FIG. 2C), image analysis was performed blinded to the experimental treatment groups. A 1.5 μm max intensity projection was produced from 3 0.5 μm confocal z-sections. […] From the resulting binary images (FIG. 9B), the microtubule positive fraction of the total cell area was calculated for alpha and detyrosinated tubulin (FIG. 2C).\nAnalysis of buckling parameters was performed on 1-8 microtubules per image series. Analysis was done blind to the experimental condition and, where possible, followed a microtubule selected from resting frames to avoid biased selection of microtubules that buckled during contraction. A centerline was drawn along the axis of the microtubule and the maximum distance to the edge of the microtubule was recorded as the amplitude (FIG. 1G, red). MTs were further analyzed by recording the distance between 2 consecutive inflection points (FIG. 1G, yellow) as half the wavelength. This short metric was selected instead of full wavelength to maximize inclusion of microtubules for which labeling or z-displacement prevented inclusion of a full cycle in the image."}, "[2]": {"conditions": "NF human myocytes, suggested off-target effect"}}}
{"smiles": "C=C1C(=O)O[C@H]2[C@H]1CC/C(C)=C/CC[C@@]1(C)O[C@@H]21", "note": "[PTL, 4,5-epoxygermacra-1(10),11(13)-dien-12,6-olactone]", "values": [{"measurement": "η (Pa*s)", "setting": "isolated cardiomyocytes; SLSM-fit derived viscosity", "value": "38.8(8.0) Pa*s"}, {"measurement": "E2 (Pa)", "setting": "isolated cardiomyocytes; velocity-dependent elastic modulus", "value": "215.3(25.0) Pa"}, {"measurement": "E1 (Pa)", "setting": "isolated cardiomyocytes; velocity-independent elastic modulus", "value": "170.6(22.5) Pa"}, {"measurement": "E1 (Pa)", "setting": "desmin KO myocytes", "value": 429.76, "unit": "Pa"}, {"measurement": "E2 (Pa)", "setting": "desmin KO myocytes", "value": 512.2, "unit": "Pa"}, {"measurement": "η (Pa*s)", "setting": "desmin KO myocytes", "value": 27.4, "unit": "Pa*s"}, {"measurement": "[Ca2+]i amplitude", "setting": "human myocytes; [2]", "value": "reduced"}, {"measurement": "[Ca2+]i transient decay phase", "setting": "human myocytes; [2]", "value": "prolonged"}, {"measurement": "impaired [Ca2+]i cycling", "setting": "human myocytes; failing human myocytes", "value": "neither colch nor PTL treatment improved"}, {"measurement": "F0 (baseline fluo3 intensity) compared to initial levels", "setting": "human myocytes; human myocytes", "value": "elevated"}, {"measurement": "E1 (Pa)", "setting": "WT myocytes", "value": 533.11, "unit": "Pa"}, {"measurement": "E2 (Pa)", "setting": "WT myocytes", "value": 627.4, "unit": "Pa"}, {"measurement": "η (Pa*s)", "setting": "WT myocytes", "value": 32.9, "unit": "Pa*s"}, {"measurement": "amount of desmin associated with the MTs", "setting": "desmin", "value": "directly proportional to the amount of MT detyrosination"}, {"measurement": "Amp (Δ)", "setting": "[1]; amplitude change on same followed MT between rest and contraction", "value": 0.078}, {"measurement": "Amp Contract", "setting": "[1]; buckling amplitude, contracted cardiomyocytes", "value": 0.212}, {"measurement": "Amp Rest", "setting": "[1]; buckling amplitude, resting cardiomyocytes", "value": 0.134}, {"measurement": "N Buckled", "setting": "[1]; number of buckled microtubules, N microtubules 24 (Parth) and 62 (TTL)", "value": 9}, {"measurement": "occurrence of buckling", "setting": "[1]; vs control myocytes", "value": "fell significantly"}]}
